Like-named read-outs stand apart in the source and are kept apart here.
Molecular target: SARS-CoV-2 Papain like protease (PLpro) (Severe acute respiratory syndrome coronavirus 2 (2019-nCoV) (SARS-CoV-2), UniProt P0DTD1)
Assay: Papain Like Protease (PLpro) biochemical assay with profluorogenic substrate Z-RLRGG-AMC
Conditions: SARS-CoV-2 PLpro 6.25 nM, 25 μM Z-RLRGG-AMC substrate, 60 minute reaction

Row | SMILES | IC50 (read-out: IC50) [µM] | IC50 (IC50 (μM)) [µM]
1 | CO/C=C/C(=O)NNC(=O)CCc1ccccc1C(=O)N[C@H](C)c1cc(-c2cnn(C)c2)nc2ccccc12 [Example 222, (R,E)-2-(3-(2-(3-methoxyacryloyl)hydrazineyl)-3-oxopropyl)-N-(1-(2-(1-methyl-1H-pyrazol-4-yl)quinolin-4-yl)ethyl)benzamide] | 1.98 | –
2 | Cc1ccc(N2CCN(C)CC2)cc1C(=O)NC(C)c1cc(-c2cc(C(=O)O)c[nH]2)cc2ccccc12 (stereo not drawn) [Example 216, 5-(4-(1-(2-methyl-5-(4-methylpiperazin-1-yl)benzamido)ethyl)naphthalen-2-yl)-1H-pyrrole-3-carboxylic acid] | 0.012 | –
3 | Cc1ccccc1C(=O)NC(C)c1cc(NC2CCCOC2)nc2ccccc12 (stereo not drawn) [Example 147] | 0.909 | –
4 | COCCn1cc(-c2cc(C(C)NC(=O)c3ccccc3C)c3ccccc3n2)cn1 (stereo not drawn) [Example 112, N-(1-{2-[1-(2-methoxyethyl)-1H-pyrazol-4-yl]quinolin-4-yl}ethyl)-2-methylbenzamide] | 0.294 | –
5 | COC(=O)/C=C/C(=O)NNC(=O)CCc1ccccc1C(=O)N[C@H](C)c1cc(-c2cnn(C)c2)nc2ccccc12 [Example 63, methyl(R,E)-4-(2-(3-(2-((1-(2-(1-methyl-1H-pyrazol-4-yl)quinolin-4-yl)ethyl)carbamoyl)phenyl)propanoyl)hydrazineyl)-4-oxobut-2-enoate] | 0.003 | –
6 | Cc1ccccc1C(=O)NC(C)c1cc(C2CC(F)(F)C2)nc2ccccc12 (stereo in doubt) [Example 154, N-{(1R)-1-[2-(3,3-difluorocyclobutyl)quinolin-4-yllethyl}-2-methylbenzamide] | 0.988 | –
7 | Cc1cc(COCc2cscn2)ccc1C(=O)NC1(c2cc(-c3cc(C(=O)N(C)C)n[nH]3)nc3ccccc23)CC1 [Example 343, N,N-dimethyl-5-(4-(1-(2-methyl-4-((thiazol-4-ylmethoxy)methyl)benzamido)cyclopropyl)quinolin-2-yl)-1H-pyrazole-3-carboxamide] | < 0.001 | –
8 | Cc1ccccc1C(=O)NC(C)c1cc(NCC2CCOCC2)nc2ccccc12 (stereo not drawn) [Example 141, 2-methyl-N-[1-(2-{[(oxan-4-yl)methyl]amino}quinolin-4-yl)ethyl]benzamide] | 0.778 | –
9 | COCC(OCc1cscn1)c1ccc(C(=O)NC2(c3cc(-c4cnn(C)c4)nc4ccccc34)CC2)c(C)c1 (single isomer, unassigned) [Example 324] | < 0.001 | –
10 | CNc1cc([C@@H](C)NC(=O)c2ccccc2C)c2ccccc2n1 [Example 41, (R)-2-methyl-N-(1-(2-(methylamino)quinolin-4-yl)ethyl)benzamide] | 1.01 | –
11 | CC(C)OC(=O)/C=C/C(=O)NNC(=O)CCc1ccccc1C(=O)N[C@H](C)c1cc(-c2cnn(C)c2)nc2ccccc12 [Example 233, isopropyl (R,E)-4-(2-(3-(2-((1-(2-(1-methyl-1H-pyrazol-4-yl)quinolin-4-yl)ethyl)carbamoyl)phenyl)propanoyl)hydrazineyl)-4-oxobut-2-enoate] | 0.003 | –
12 | Cc1cc(CC(=O)Nc2nccs2)ccc1C(=O)N[C@H](C)c1cc(-c2cnn(C)c2)nc2ccccc12 [Example 238, (R)-2-methyl-N-(1-(2-(1-methyl-1H-pyrazol-4-yl)quinolin-4-yl)ethyl)-4-(2-oxo-2-(thiazol-2-ylamino)ethyl)benzamide] | 0.016 | –
13 | C[C@@H](NC(=O)c1ccccc1CCC(=O)NNC(=O)/C=C/C(N)=O)c1cc(-c2cnn(C)c2)nc2ccccc12 [Example 224, (R,E)-2-(3-(2-(4-amino-4-oxobut-2-enoyl)hydrazineyl)-3-oxopropyl)-N-(1-(2-(1-methyl-1H-pyrazol-4-yl)quinolin-4-yl)ethyl)benzamide] | 0.006 | –
14 | COc1c(-c2cnn(C)c2)cc(C(C)NC(=O)c2cc(CN)ccc2C)c2ccccc12 (stereo not drawn) [Example 205] | 0.043 | –
15 | Cc1ccc(N2CC3CC(C2)N3)cc1C(=O)N[C@H](C)c1cc(-c2cnn(C)c2)nc2ccccc12 [Example 251, 5-(3,6-diazabicyclo[3.1.1]heptan-3-yl)-2-methyl-N—((R)-1-(2-(1-methyl-1H-pyrazol-4-yl)quinolin-4-yl)ethyl)benzamide] | – | 0.005

Source: patent US20240245673A1, “Papain-like protease (PLpro) inhibitors” (Pfizer Inc., priority 2022, published 2024)
